Assay results as given in ChEMBL document CHEMBL3774343, “Discovery of CREBBP Bromodomain Inhibitors by High-Throughput Docking and Hit Optimization Guided by Molecular Dynamics” (J Med Chem, 2016).
Peptide text beside a SMILES is read from it.

What was measured:
CREB-binding protein [1] = target: T1, CREB-binding protein (Homo sapiens, UniProt Q92793); test: Binding affinity to CREBBP (unknown origin) by fluorescence polarization assay
Target sequence in this assay (Q92793 whole entry): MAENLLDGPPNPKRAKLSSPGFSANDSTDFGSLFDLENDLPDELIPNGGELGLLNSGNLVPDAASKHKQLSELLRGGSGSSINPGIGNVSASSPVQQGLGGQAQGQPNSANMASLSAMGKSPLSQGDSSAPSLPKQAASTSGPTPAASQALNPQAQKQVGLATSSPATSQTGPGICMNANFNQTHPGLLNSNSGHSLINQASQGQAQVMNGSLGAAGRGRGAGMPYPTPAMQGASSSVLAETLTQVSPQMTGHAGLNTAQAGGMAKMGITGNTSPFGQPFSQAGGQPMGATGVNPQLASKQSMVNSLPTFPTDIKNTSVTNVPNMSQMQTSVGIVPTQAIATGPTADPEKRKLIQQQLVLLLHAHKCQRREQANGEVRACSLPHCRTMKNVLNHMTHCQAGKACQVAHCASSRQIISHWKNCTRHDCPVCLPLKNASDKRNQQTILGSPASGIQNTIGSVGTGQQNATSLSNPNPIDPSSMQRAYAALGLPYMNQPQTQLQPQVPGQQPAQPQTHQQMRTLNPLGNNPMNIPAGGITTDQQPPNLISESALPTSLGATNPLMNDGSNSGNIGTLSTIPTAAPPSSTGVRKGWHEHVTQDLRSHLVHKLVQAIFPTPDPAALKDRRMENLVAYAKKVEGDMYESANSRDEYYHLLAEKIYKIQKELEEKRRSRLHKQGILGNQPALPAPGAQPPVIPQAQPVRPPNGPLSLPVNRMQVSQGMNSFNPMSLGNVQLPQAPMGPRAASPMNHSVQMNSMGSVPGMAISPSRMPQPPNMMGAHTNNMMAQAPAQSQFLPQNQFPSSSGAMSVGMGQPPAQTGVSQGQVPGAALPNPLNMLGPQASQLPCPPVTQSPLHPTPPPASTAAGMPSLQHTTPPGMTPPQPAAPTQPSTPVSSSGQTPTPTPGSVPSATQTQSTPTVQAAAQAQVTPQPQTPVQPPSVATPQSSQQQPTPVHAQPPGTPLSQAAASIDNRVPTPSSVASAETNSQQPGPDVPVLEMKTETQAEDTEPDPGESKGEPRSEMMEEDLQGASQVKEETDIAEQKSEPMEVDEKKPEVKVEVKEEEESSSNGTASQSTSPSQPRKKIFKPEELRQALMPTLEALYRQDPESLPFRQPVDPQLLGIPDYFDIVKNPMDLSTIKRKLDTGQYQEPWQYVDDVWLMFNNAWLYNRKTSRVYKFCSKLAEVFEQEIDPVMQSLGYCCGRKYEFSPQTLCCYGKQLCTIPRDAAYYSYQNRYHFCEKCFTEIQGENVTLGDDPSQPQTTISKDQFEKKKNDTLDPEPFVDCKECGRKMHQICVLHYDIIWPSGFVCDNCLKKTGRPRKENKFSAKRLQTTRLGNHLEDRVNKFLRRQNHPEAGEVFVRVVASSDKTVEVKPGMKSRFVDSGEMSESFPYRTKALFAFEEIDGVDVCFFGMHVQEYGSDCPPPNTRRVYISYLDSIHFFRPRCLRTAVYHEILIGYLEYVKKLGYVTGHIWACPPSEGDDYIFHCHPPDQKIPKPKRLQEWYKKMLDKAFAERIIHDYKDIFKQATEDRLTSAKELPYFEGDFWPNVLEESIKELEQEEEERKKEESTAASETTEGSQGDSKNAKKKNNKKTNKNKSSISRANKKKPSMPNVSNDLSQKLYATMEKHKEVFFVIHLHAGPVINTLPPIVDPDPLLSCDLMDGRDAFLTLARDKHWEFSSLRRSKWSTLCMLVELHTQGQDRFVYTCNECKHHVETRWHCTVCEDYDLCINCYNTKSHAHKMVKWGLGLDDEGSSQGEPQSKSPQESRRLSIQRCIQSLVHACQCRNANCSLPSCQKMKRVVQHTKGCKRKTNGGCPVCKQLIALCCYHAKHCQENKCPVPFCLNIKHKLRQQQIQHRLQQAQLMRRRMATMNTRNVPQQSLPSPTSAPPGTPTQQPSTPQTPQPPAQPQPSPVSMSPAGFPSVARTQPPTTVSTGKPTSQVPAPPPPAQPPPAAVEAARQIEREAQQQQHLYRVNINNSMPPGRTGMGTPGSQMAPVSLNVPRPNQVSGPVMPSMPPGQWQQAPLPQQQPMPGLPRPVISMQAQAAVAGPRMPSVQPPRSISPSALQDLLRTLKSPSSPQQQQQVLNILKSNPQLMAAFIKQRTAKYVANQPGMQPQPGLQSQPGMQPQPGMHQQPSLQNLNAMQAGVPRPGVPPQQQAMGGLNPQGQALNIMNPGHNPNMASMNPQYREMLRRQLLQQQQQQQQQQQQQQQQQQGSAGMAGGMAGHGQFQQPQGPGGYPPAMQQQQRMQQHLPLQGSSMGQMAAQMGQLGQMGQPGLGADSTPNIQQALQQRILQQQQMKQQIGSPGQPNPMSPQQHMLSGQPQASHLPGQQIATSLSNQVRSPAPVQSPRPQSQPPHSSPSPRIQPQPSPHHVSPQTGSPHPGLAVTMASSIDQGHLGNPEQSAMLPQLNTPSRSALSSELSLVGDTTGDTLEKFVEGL

CREB-binding protein [2] = target: T1, CREB-binding protein; test: Competitive binding affinity to partial length human CREBBP expressed in Escherichia coli BL21 at 50 uM after 1 hr by BROMOscan assay relative to control
Target sequence in this assay (Q92793 2-2442 limits assumed): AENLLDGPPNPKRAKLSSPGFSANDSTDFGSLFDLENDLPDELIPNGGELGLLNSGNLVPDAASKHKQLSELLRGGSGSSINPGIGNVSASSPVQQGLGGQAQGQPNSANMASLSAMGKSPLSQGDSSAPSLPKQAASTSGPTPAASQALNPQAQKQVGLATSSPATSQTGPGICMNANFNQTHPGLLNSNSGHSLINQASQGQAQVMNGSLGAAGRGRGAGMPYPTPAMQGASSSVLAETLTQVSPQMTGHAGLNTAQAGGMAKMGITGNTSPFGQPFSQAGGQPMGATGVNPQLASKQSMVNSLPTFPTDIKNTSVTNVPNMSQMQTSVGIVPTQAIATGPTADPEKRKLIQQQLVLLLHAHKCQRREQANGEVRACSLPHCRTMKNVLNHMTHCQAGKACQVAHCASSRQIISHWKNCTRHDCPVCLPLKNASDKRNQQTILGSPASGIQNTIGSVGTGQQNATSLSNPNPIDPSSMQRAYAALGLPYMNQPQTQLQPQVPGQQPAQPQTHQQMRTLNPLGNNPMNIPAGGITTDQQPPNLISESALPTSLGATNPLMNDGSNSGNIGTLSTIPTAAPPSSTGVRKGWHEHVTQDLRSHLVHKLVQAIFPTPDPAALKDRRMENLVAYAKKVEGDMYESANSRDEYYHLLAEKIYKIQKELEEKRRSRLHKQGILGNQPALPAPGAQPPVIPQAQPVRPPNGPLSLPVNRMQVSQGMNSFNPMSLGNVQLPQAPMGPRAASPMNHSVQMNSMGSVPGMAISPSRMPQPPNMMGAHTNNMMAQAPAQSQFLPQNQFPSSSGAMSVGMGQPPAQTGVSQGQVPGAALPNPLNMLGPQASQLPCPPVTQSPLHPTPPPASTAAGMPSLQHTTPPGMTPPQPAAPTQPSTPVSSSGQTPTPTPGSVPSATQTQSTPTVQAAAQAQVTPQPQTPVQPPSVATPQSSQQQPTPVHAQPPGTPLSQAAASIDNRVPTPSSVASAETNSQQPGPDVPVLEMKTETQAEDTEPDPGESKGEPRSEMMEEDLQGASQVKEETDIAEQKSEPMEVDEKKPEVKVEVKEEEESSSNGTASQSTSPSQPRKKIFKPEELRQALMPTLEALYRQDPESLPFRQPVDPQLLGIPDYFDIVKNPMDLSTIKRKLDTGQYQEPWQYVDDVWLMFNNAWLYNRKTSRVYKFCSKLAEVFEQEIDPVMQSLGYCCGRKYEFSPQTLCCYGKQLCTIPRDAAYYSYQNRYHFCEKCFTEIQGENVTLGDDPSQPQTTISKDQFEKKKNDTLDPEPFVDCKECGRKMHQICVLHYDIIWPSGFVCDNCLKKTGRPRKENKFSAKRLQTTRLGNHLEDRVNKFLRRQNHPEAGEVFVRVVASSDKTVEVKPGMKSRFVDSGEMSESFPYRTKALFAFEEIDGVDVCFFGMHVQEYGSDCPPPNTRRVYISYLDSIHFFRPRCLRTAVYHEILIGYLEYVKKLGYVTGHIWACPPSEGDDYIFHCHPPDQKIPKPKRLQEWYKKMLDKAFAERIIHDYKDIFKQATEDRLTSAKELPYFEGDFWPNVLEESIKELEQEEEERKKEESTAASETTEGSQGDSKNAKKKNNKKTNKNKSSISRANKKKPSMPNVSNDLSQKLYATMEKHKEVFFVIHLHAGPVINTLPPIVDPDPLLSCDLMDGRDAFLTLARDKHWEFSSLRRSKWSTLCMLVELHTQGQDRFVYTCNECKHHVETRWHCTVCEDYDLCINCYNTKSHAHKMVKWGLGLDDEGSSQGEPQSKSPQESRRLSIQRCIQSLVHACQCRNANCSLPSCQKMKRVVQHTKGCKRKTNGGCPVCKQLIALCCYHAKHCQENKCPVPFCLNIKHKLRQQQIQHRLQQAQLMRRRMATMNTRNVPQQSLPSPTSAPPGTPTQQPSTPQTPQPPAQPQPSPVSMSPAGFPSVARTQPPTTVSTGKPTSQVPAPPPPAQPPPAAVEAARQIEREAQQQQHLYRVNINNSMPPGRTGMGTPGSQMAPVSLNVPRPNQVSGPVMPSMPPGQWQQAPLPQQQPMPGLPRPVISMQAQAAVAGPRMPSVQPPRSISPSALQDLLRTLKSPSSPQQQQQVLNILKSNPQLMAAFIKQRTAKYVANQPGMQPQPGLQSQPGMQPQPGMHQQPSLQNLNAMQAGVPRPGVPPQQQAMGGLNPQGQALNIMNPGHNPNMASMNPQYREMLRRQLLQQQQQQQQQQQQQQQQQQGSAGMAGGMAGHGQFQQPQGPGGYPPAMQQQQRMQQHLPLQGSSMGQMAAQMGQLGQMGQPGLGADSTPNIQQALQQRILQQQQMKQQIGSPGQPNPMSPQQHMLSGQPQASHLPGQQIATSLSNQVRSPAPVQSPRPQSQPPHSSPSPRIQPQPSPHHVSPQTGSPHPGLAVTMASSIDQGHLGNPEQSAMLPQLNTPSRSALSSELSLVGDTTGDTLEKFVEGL

CREB-binding protein [3] = target: T1, CREB-binding protein; test: Binding affinity to human CREBBP at 100 uM by thermal shift assay
Target sequence in this assay (Q92793 2-2442 limits assumed): as above

CREB-binding protein [4] = target: T1, CREB-binding protein; test: Binding affinity to N-terminal GST-tagged recombinant human CREBBP expressed in Escherichia coli after 2 hrs using BET bromodomain ligand by TR-FRET assay
Target sequence in this assay (Q92793 whole entry): as the sequence (Q92793 whole entry) above

Homo sapiens = species: Homo sapiens; test: Selectivity ratio of Kd for BRD4 bromodomain 1 (unknown origin) to Kd for partial length human CREBBP expressed in Escherichia coli BL21
CREB-binding protein [5] = target: T1, CREB-binding protein; test: Competitive binding affinity to partial length human CREBBP expressed in Escherichia coli BL21 after 1 hr by BROMOscan assay
Target sequence in this assay (Q92793 whole entry): as above

Activity (CREB-binding protein [2]) [%]	ΔTm (CREB-binding protein [3]) [°C]	IC50 (CREB-binding protein [4]) [µM]	Compound	further results
			CC(=O)NCCCC[C@@H]1NC(=O)[C@H](CCCCN)NC(=O)[C@H](Cc2c[nH]c3ccccc23)NC(=O)[C@@H](NC(C)=O)CSSC[C@@H](C(=O)N[C@@H](Cc2ccccc2)C(=O)N[C@@H](CCCCN)C(N)=O)NC(=O)[C@H](CC(C)C)NC1=O (HELM PEPTIDE1{[ac].C.W.K.K.L.C.F.K.[am]}|PEPTIDE2{[ac]}$PEPTIDE1,PEPTIDE2,5:R3-1:R2|PEPTIDE1,PEPTIDE1,2:R3-7:R3$$$V2.0)	IC50 (CREB-binding protein [1]): 5 µM
3	0.3		CCCc1c(C(=O)NCc2c(C)cc(C)[nH]c2=O)[nH]c(C)c1C(C)=O	
	1.4	> 10	CC(=O)c1c(C)[nH]c(C(=O)Nc2cc(C(=O)O)ccc2C)c1C	
			CCOc1ccc(C(C)=O)cc1NC(=O)c1cccc(C(=O)O)c1	Ratio (Homo sapiens): > 65
	2.3	1.5	CC(=O)c1c(C)[nH]c(C(=O)Nc2cccc(C(=O)O)c2)c1C	Kd (CREB-binding protein [5]): 4.2 µM
9	0.3	> 100	CC(=O)c1c(C)[nH]c(C(=O)Nc2cc(-c3nnco3)ccc2C)c1C	Kd (CREB-binding protein [5]): 13 µM
5	1.3		CCn1cnnc1CNC(=O)c1[nH]c(C)c(C(C)=O)c1C	
20			COC(=O)c1ccc(C)c(NC(=O)c2[nH]c(C)c(C(C)=O)c2C)c1	
